Experimental data from PubChem BioAssay (NCI).
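Protocol summary: plate cells (96-well), add compound at 5 concentrations, incubate 48 h, interpolate endpoints linearly. The concentration for full growth arrest is given as TGI.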

What was measured:
Assay in all cases: inhibition of tumour cell growth, NCI panel, 48 h
HOP-18 NSCLC = system: HOP-18 NSCLC
OVCAR-8 ovarian = system: OVCAR-8 ovarian
A498 renal = system: A498 renal
RPMI-8226 leukemia = system: RPMI-8226 leukemia
SNB-75 CNS = system: SNB-75 CNS
SK-MEL-2 melanoma = system: SK-MEL-2 melanoma
CCRF-CEM leukemia = system: CCRF-CEM leukemia
RXF-631 renal = system: RXF-631 renal
HT29 colon = system: HT29 colon
EKVX NSCLC = system: EKVX NSCLC
M14 melanoma = system: M14 melanoma
SN12C renal = system: SN12C renal
KM12 colon = system: KM12 colon
NCI-H460 lung = system: NCI-H460 lung
CAKI-1 renal = system: CAKI-1 renal
OVCAR-4 ovarian = system: OVCAR-4 ovarian
UACC-257 melanoma = system: UACC-257 melanoma
MALME-3M melanoma = system: MALME-3M melanoma
SK-MEL-5 melanoma = system: SK-MEL-5 melanoma
DMS 114 small cell lung = system: DMS 114 small cell lung
DLD-1 colon = system: DLD-1 colon
SNB-78 CNS = system: SNB-78 CNS
SR leukemia = system: SR leukemia
NCI-H23 lung = system: NCI-H23 lung
SF-295 CNS = system: SF-295 CNS
SW-620 colon = system: SW-620 colon
SK-MEL-28 melanoma = system: SK-MEL-28 melanoma
LOX IMVI melanoma = system: LOX IMVI melanoma
HCT-15 colon = system: HCT-15 colon
HCC-2998 colon = system: HCC-2998 colon
NCI-H226 lung = system: NCI-H226 lung
OVCAR-5 ovarian = system: OVCAR-5 ovarian
RXF 393 renal = system: RXF 393 renal
A549 NSCLC = system: A549 NSCLC
XF 498 CNS = system: XF 498 CNS
DMS 273 small cell lung = system: DMS 273 small cell lung
HL-60(TB) leukemia = system: HL-60(TB) leukemia
IGROV1 ovarian = system: IGROV1 ovarian
U251 CNS = system: U251 CNS
COLO 205 colon = system: COLO 205 colon
MOLT-4 leukemia = system: MOLT-4 leukemia
SNB-19 CNS = system: SNB-19 CNS
HOP-92 NSCLC = system: HOP-92 NSCLC
SF-268 CNS = system: SF-268 CNS
TK-10 renal = system: TK-10 renal
HCT-116 colon = system: HCT-116 colon
ACHN renal = system: ACHN renal
SF-539 CNS = system: SF-539 CNS
KM20L2 colon = system: KM20L2 colon
LXFL 529 NSCLC = system: LXFL 529 NSCLC
UACC-62 melanoma = system: UACC-62 melanoma
OVCAR-3 ovarian = system: OVCAR-3 ovarian
SK-OV-3 ovarian = system: SK-OV-3 ovarian
K-562 leukemia = system: K-562 leukemia
HOP-62 NSCLC = system: HOP-62 NSCLC
UO-31 renal = system: UO-31 renal
M19-MEL melanoma = system: M19-MEL melanoma
786-0 renal = system: 786-0 renal

## CC(=O)NC1C(O)CC(OCCCSCCN)(C(=O)O)OC1C(O)C(O)CO (stereo not given)
HOP-18 NSCLC
  TGI: > 100 µM
OVCAR-8 ovarian
  TGI: > 100 µM
A498 renal
  TGI: > 100 µM
RPMI-8226 leukemia
  TGI: > 100 µM
SNB-75 CNS
  TGI: > 100 µM
SK-MEL-2 melanoma
  TGI: > 100 µM
CCRF-CEM leukemia
  TGI: > 100 µM
RXF-631 renal
  TGI: > 100 µM
HT29 colon
  TGI: > 100 µM
EKVX NSCLC
  TGI: > 100 µM
M14 melanoma
  TGI: > 100 µM
SN12C renal
  TGI: > 100 µM
KM12 colon
  TGI: > 100 µM
NCI-H460 lung
  TGI: > 100 µM
CAKI-1 renal
  TGI: > 100 µM
OVCAR-4 ovarian
  TGI: > 100 µM
UACC-257 melanoma
  TGI: > 100 µM
MALME-3M melanoma
  TGI: > 100 µM
SK-MEL-5 melanoma
  TGI: > 100 µM
DMS 114 small cell lung
  TGI: > 100 µM
DLD-1 colon
  TGI: > 100 µM
SNB-78 CNS
  TGI: > 100 µM
SR leukemia
  TGI: > 100 µM
NCI-H23 lung
  TGI: > 100 µM
SF-295 CNS
  TGI: > 100 µM
SW-620 colon
  TGI: > 100 µM
SK-MEL-28 melanoma
  TGI: > 100 µM
LOX IMVI melanoma
  TGI: > 100 µM
HCT-15 colon
  TGI: > 100 µM
HCC-2998 colon
  TGI: > 100 µM
NCI-H226 lung
  TGI: > 100 µM
OVCAR-5 ovarian
  TGI: > 100 µM
RXF 393 renal
  TGI: > 100 µM
A549 NSCLC
  TGI: > 100 µM
XF 498 CNS
  TGI: > 100 µM
DMS 273 small cell lung
  TGI: > 100 µM
HL-60(TB) leukemia
  TGI: > 100 µM
IGROV1 ovarian
  TGI: > 100 µM
U251 CNS
  TGI: > 100 µM
COLO 205 colon
  TGI: > 100 µM
MOLT-4 leukemia
  TGI: > 100 µM
SNB-19 CNS
  TGI: > 100 µM
HOP-92 NSCLC
  TGI: > 100 µM
SF-268 CNS
  TGI: > 100 µM
TK-10 renal
  TGI: > 100 µM
HCT-116 colon
  TGI: > 100 µM
ACHN renal
  TGI: > 100 µM
SF-539 CNS
  TGI: > 100 µM
KM20L2 colon
  TGI: > 100 µM
LXFL 529 NSCLC
  TGI: > 100 µM

## CC1(C)C(O)OC(O)C1(C)C (stereo not given)
UACC-62 melanoma
  TGI: > 100 µM
OVCAR-3 ovarian
  TGI: > 100 µM
HOP-18 NSCLC
  TGI: > 100 µM
OVCAR-8 ovarian
  TGI: > 100 µM
SK-OV-3 ovarian
  TGI: > 100 µM
RPMI-8226 leukemia
  TGI: > 100 µM
SNB-75 CNS
  TGI: > 100 µM
SK-MEL-2 melanoma
  TGI: > 100 µM
CCRF-CEM leukemia
  TGI: > 100 µM
RXF-631 renal
  TGI: > 100 µM
HT29 colon
  TGI: > 100 µM
EKVX NSCLC
  TGI: > 100 µM
M14 melanoma
  TGI: > 100 µM
SN12C renal
  TGI: > 100 µM
K-562 leukemia
  TGI: > 100 µM
HOP-62 NSCLC
  TGI: > 100 µM
KM12 colon
  TGI: > 100 µM
NCI-H460 lung
  TGI: > 100 µM
CAKI-1 renal
  TGI: > 100 µM
OVCAR-4 ovarian
  TGI: > 100 µM
UACC-257 melanoma
  TGI: > 100 µM
MALME-3M melanoma
  TGI: > 100 µM
SK-MEL-5 melanoma
  TGI: > 100 µM
DMS 114 small cell lung
  TGI: > 100 µM
DLD-1 colon
  TGI: > 100 µM
SNB-78 CNS
  TGI: > 100 µM
SF-295 CNS
  TGI: > 100 µM
SW-620 colon
  TGI: > 100 µM
UO-31 renal
  TGI: > 100 µM
SK-MEL-28 melanoma
  TGI: > 100 µM
M19-MEL melanoma
  TGI: > 100 µM
LOX IMVI melanoma
  TGI: > 100 µM
HCT-15 colon
  TGI: > 100 µM
HCC-2998 colon
  TGI: > 100 µM
NCI-H226 lung
  TGI: > 100 µM
OVCAR-5 ovarian
  TGI: > 100 µM
RXF 393 renal
  TGI: 94.6 µM
A549 NSCLC
  TGI: > 100 µM
786-0 renal
  TGI: > 100 µM
XF 498 CNS
  TGI: > 100 µM
DMS 273 small cell lung
  TGI: > 100 µM
HL-60(TB) leukemia
  TGI: > 100 µM
IGROV1 ovarian
  TGI: > 100 µM
U251 CNS
  TGI: > 100 µM
COLO 205 colon
  TGI: > 100 µM
MOLT-4 leukemia
  TGI: > 100 µM
SNB-19 CNS
  TGI: > 100 µM
HOP-92 NSCLC
  TGI: > 100 µM
TK-10 renal
  TGI: > 100 µM
HCT-116 colon
  TGI: > 100 µM
ACHN renal
  TGI: > 100 µM
KM20L2 colon
  TGI: > 100 µM
LXFL 529 NSCLC
  TGI: > 100 µM

## CC(=O)N(C)C=C1C(=O)N(C)C(=O)N(C)C1=O
UACC-62 melanoma
  TGI: > 100 µM
OVCAR-3 ovarian
  TGI: > 100 µM
HOP-18 NSCLC
  TGI: > 100 µM
OVCAR-8 ovarian
  TGI: > 100 µM
A498 renal
  TGI: > 100 µM
RPMI-8226 leukemia
  TGI: > 100 µM
SNB-75 CNS
  TGI: > 100 µM
SK-MEL-2 melanoma
  TGI: > 100 µM
CCRF-CEM leukemia
  TGI: > 100 µM
RXF-631 renal
  TGI: > 100 µM
HT29 colon
  TGI: > 100 µM
EKVX NSCLC
  TGI: > 100 µM
M14 melanoma
  TGI: > 100 µM
SN12C renal
  TGI: > 100 µM
K-562 leukemia
  TGI: > 100 µM
KM12 colon
  TGI: > 100 µM
NCI-H460 lung
  TGI: > 100 µM
CAKI-1 renal
  TGI: > 100 µM
OVCAR-4 ovarian
  TGI: > 100 µM
UACC-257 melanoma
  TGI: > 100 µM
MALME-3M melanoma
  TGI: > 100 µM
SK-MEL-5 melanoma
  TGI: > 100 µM
DMS 114 small cell lung
  TGI: > 100 µM
DLD-1 colon
  TGI: > 100 µM
SR leukemia
  TGI: > 100 µM
NCI-H23 lung
  TGI: > 100 µM
SF-295 CNS
  TGI: > 100 µM
SW-620 colon
  TGI: > 100 µM
UO-31 renal
  TGI: > 100 µM
SK-MEL-28 melanoma
  TGI: > 100 µM
M19-MEL melanoma
  TGI: > 100 µM
LOX IMVI melanoma
  TGI: > 100 µM
HCT-15 colon
  TGI: > 100 µM
HCC-2998 colon
  TGI: > 100 µM
NCI-H226 lung
  TGI: > 100 µM
OVCAR-5 ovarian
  TGI: > 100 µM
RXF 393 renal
  TGI: > 100 µM
A549 NSCLC
  TGI: > 100 µM
786-0 renal
  TGI: > 100 µM
XF 498 CNS
  TGI: > 100 µM
DMS 273 small cell lung
  TGI: > 100 µM
HL-60(TB) leukemia
  TGI: > 100 µM
U251 CNS
  TGI: > 100 µM
MOLT-4 leukemia
  TGI: > 100 µM
SNB-19 CNS
  TGI: > 100 µM
HOP-92 NSCLC
  TGI: > 100 µM
TK-10 renal
  TGI: > 100 µM
HCT-116 colon
  TGI: > 100 µM
ACHN renal
  TGI: > 100 µM
SF-539 CNS
  TGI: > 100 µM
KM20L2 colon
  TGI: > 100 µM
LXFL 529 NSCLC
  TGI: > 100 µM
